Laboratory results taken from patent US7935341B2, “Antibodies to complementary peptides of thrombin or portions thereof” (Orthologic Corp., priority 2005, dated 2011).
No end group written: not given here.

Biological target: T1, biotinylated thrombin ([B]-thrombin) (Homo sapiens, UniProt P00734)
T1 construct: present in blood plasma in the form of a precursor, pro-thrombin
Experiment: Binding of biotinylated thrombin to complementary peptides coated on ELISA plates
Conditions: for specific binding of [B]-thrombin to the complementary peptide: peptide-coated ELISA plate, total minus nonspecific binding (excess unlabeled thrombin), HRP-avidin readout at 450 nm
Procedure: Complementary peptides (CPs) (AC-23, 23C53, C1053 and ND1053) were coated onto individual wells of 96 well plates by incubating in a 10 μg/ml solution of peptide in carbonate buffer (pH 9.5) or in Phosphate Buffered Saline (PBS) overnight at room temperature. The amino acid sequences of particular complementary peptides are described below and are depicted in FIG. 4. In particular, the following CPs were generated:
Prior to use, the wells were covered with blocking solution containing 0.1% bovine serum albumin (BSA) to reduce non-specific binding. The plates were rinsed and stored at 4° C. until used. To perform the binding experiments, the peptide-coated ELISA plates were blocked with 200 μl per well of blocking buffer (0.1% BSA (w/v) in PBS) for 90 minutes at room temperature. The plates were subsequently rinsed two times with distilled water. Total and nonspecific (NS) binding was determined, respectively, by adding 100 μl per well of 125 ng/ml of biotinylated thrombin ([B]-thrombin) alone or containing 12.5 μg/ml of unlabeled thrombin for 90 minutes at room temperature. The plates were then rinsed four times with PBSTT (PBS+0.5% v/v Tween 20 (polyoxyethylene sorbitan monolaurate)), and 100 μl of Avidin-HRP antibody (Becton Dickinson) diluted to 1:1000 was added per well for 120 minutes at room temperature. The plates were subsequently rinsed four times with PBSTT, and 100 μl of Turbo TMB substrate (Pierce) was added for 30 minutes at room temperature. The reaction was stopped by adding 100 μl per well of 1 N H2SO4 and the plates were read immediately at 450 nm using a Spectra Max Plus plate reader (Molecular Device). The specific binding of [B]-thrombin to the coated wells was determined by subtracting non-specific binding from total binding.
Specific thrombin binding was determined using indicated concentrations of biotinylated thrombin alone and with a 100-fold excess of unlabeled thrombin (to define nonspecific binding).

Sequence	EC50 (increasing concentrations of [B]-thrombin on AC-23-coated wells, n=2±SD, read-out: half maximal binding of [B]-thrombin)	specific binding of [B]-thrombin to the complementary peptide
KGSPTVTFTGIPCFPFIRLVTS [AC-23]	4.8 ± 0.2 nM	specifically bound
KGSPTVTFTGIPSFPFIRLVTS (complementary peptides) [23C53]		specifically bound
TFTGIPSFPF (complementary peptides) [10C53]		not
